Results from ChEMBL document CHEMBL4359843, “Linear and Rationally Designed Stapled Peptides Abrogate TLR4 Pathway and Relieve Inflammatory Symptoms in Rheumatoid Arthritis Rat Model” (J Med Chem, 2019).
The source made the active and inactive calls. The calls are words filed in the database; no cut-off is given here. Where a SMILES comes first, the peptide text is derived from it. Bridges are numbered along the chain shown (N, C = ends).

Assays:
Assay type in all cases: cell-based
[1] = target: T1, Toll-like receptor 4 (Mus musculus) (UniProt Q9QUK6); experiment: Antagonist activity at TLR4 in mouse RAW264.7 cells assessed as reduction in LPS-induced IFNalpha secretion at 5 to 50 uM after 24 hrs by ELISA
T1 sequence (whole entry): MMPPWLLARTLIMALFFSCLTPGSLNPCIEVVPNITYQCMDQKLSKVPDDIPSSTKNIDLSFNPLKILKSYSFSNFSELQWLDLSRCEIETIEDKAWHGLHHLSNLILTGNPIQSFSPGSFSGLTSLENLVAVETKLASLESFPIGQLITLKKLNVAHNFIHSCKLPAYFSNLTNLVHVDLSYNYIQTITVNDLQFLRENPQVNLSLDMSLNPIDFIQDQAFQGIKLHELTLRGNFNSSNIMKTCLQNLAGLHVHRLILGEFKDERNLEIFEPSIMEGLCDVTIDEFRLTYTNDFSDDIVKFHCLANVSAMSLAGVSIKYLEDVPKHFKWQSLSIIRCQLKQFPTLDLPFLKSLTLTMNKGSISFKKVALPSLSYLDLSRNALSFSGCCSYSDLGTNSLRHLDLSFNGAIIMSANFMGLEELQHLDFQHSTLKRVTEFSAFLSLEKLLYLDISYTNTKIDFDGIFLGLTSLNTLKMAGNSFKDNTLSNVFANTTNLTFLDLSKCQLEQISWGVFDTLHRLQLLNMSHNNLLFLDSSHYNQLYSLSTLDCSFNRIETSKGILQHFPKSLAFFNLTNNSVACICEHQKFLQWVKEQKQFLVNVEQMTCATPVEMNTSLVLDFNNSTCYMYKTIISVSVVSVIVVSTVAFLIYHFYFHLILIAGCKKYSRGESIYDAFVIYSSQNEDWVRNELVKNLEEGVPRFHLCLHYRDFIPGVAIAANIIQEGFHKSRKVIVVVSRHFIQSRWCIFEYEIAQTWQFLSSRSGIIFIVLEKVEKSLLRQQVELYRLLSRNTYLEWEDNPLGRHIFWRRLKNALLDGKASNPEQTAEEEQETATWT

[2] = target: Toll-like receptor 4 (Homo sapiens, UniProt O00206); experiment: Antagonist activity at TLR4 in human THP1 cells assessed as reduction in LPS-induced IkappaBalpha degradation at 50 uM after 15 to 30 mins by Western blot analysis
Toll-like receptor 4, sequence (O00206 whole entry): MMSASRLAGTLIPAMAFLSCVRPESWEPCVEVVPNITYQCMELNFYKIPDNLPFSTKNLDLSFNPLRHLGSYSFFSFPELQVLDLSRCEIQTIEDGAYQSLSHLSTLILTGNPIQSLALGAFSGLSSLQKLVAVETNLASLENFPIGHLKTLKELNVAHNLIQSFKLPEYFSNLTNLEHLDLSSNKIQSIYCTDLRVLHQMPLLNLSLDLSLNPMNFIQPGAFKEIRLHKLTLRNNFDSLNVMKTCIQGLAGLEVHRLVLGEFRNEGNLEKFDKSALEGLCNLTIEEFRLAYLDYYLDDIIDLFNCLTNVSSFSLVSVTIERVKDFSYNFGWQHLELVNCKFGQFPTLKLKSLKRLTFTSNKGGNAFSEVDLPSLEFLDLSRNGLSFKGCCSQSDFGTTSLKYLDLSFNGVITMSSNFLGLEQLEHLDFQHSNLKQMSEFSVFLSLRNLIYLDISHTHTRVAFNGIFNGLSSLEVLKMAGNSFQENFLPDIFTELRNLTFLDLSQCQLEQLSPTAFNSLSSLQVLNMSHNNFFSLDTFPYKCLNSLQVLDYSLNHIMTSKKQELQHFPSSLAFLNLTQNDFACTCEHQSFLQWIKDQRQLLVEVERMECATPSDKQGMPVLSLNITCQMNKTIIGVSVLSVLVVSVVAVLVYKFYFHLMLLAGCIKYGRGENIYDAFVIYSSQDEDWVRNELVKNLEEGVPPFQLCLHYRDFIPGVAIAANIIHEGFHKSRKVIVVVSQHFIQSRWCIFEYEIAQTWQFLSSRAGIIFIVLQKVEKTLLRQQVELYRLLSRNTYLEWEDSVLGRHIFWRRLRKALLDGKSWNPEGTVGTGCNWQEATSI

[3] = target: T1, Toll-like receptor 4 (Mus musculus); experiment: Antagonist activity at TLR4 in mouse RAW264.7 cells assessed as reduction in LPS-induced JNK phosphorylation at 80 uM after 15 to 30 mins by Western blot analysis

| Compound | Activity [1] | Activity [2] | Activity [3] |
| --- | --- | --- | --- |
| CC[C@H](C)[C@@H]1NC(=O)[C@H](Cc2c[nH]c3ccccc23)NC(=O)[C@H](Cc2c[nH]c3ccccc23)NC(=O)[C@@H](NC(=O)[C@H](CO)NC(=O)[C@H](Cc2ccccc2)NC(=O)[C@@H](NC(=O)CNC(=O)[C@@H](N)CC(C)C)C(C)C)CC(=O)NCCCC[C@@H](C(=O)N[C@@H](CC(C)C)C(=O)N[C@H](C(=O)O)C(C)C)NC1=O (H-LGVFSDWWIKLV-OH; lactam 6-10) | Active | Active | – |
| H-LGVFSSWWIKLV-OH | – | – | Active |
